According to ChEMBL document CHEMBL4706689, “Synthesis and antifungal activity of polycyclic pyridone derivatives with anti-hyphal and biofilm formation activity against Candida albicans” (2021):
Active and inactive are the calls of the source. The rule behind the calls is not given here.

Assays:
Candida albicans [1] = assay: Inhibition of hyphal formation in Candida albicans SC5314 cultured in spider medium assessed as reduction in hyphal length at 25 ug/ml relative to control; type: functional
Candida albicans [2] = assay: Inhibition of hyphal formation in Candida albicans SC5314 cultured in spider medium assessed as reduction in hyphal length; type: functional, organism-based; details: dose 3.12-25 µg/ml
Candida albicans [3] = assay: Inhibition of biofilm formation in Candida albicans SC5314 at 25 ug/ml by XTT assay relative to control; type: functional
Candida albicans [4] = assay: Inhibition of biofilm formation in Candida albicans SC5314 by XTT assay; type: functional, organism-based
Candida albicans [5] = assay: Inhibition of biofilm formation in Candida albicans SC5314 at 6.25 to 25 ug/ml by XTT assay; type: functional, organism-based; details: dose 6.25-25 µg/ml

SMILES | inhibition at 25 µg/mL (Candida albicans [1]) | inhibition (Candida albicans [2]) | inhibition at 25 µg/mL (Candida albicans [3]) | inhibition (Candida albicans [4]) | inhibition (Candida albicans [5])
C[C@H]1Oc2c(-c3cccs3)c(Cl)[nH]c(=O)c2[C@H]2c3ccccc3OC[C@H]21 | 30% | – | – | – | –
CC1(C)C=Cc2c(c(-c3ccccc3)c[nH]c2=O)O1 | > 50% | Dose-dependent effect | 18.7% | – | –
CC1(C)C=Cc2c(c(-c3ccccc3)c(Cl)[nH]c2=O)O1 | 30% | – | – | – | –
Cc1ccc(-c2c[nH]c(=O)c3c2OC(C)(C)C=C3)cc1 | > 50% | Dose-dependent effect | 17.9% | – | –
C[C@H]1CC[C@H]2[C@H](C1)c1c(c(-c3cccs3)c(Cl)[nH]c1=O)OC2(C)C | 30% | – | – | – | –
CC(C)=CC[C@]1(C)Oc2c(-c3ccc(C)cc3)c(Cl)[nH]c(=O)c2[C@H]2c3ccccc3OC[C@H]21 | 30% | – | – | – | –
Cc1ccc(-c2c(Cl)[nH]c(=O)c3c2O[C@H](C)[C@@H]2COc4ccccc4[C@H]32)cc1 | > 50% | Dose-dependent effect | – | inactive | –
Cc1ccc(-c2c(Cl)[nH]c(=O)c3c2OC(C)(C)C=C3)cc1 | 30% | – | – | – | –
CC(C)=CCC1(C)C=Cc2c(c(-c3ccc(C)cc3)c(Cl)[nH]c2=O)O1 (stereo not drawn) | 30% | – | – | – | –
CC1(C)C=Cc2c(c(-c3cccs3)c(Cl)[nH]c2=O)O1 | > 50% | Dose-dependent effect | – | – | Active
